The source made the active and inactive calls. No cut-off for these calls is given here.
Key:
[1] = tested on: Transthyretin (Homo sapiens), P02766 [V50M]; assay: Binding affinity to N-terminal hexa-histidine tagged TTR V30M mutant (unknown origin) expressed in Escherichia coli assessed as change in entropy at 60 uM by ITC assay
Transthyretin [2] = molecular target: T1, Transthyretin (Homo sapiens, UniProt P02766, V50M); assay: Binding affinity to recombinant N-terminal hexa-histidine tagged TTR V30M mutant (unknown origin) expressed in Escherichia coli assessed as quenching of intrinsic tryptophan fluorescence by measuring apparent dissociation constant incubated for 60 mins by fluorescence based analysis; details: read-out: Kd(app)
Transthyretin [3] = molecular target: T1, Transthyretin; assay: Binding affinity to N-terminal hexa-histidine tagged TTR V30M mutant (unknown origin) expressed in Escherichia coli assessed as dissociation constant at 60 uM by ITC assay
Transthyretin [4] = molecular target: T1, Transthyretin; assay: (§1) Inhibition of recombinant N-terminal hexa-histidine tagged TTR V30M mutant (unknown origin) expressed in Escherichia coli assessed as acid mediated amyloid-like fibril formation by measuring turbidity incubated for 1 week at 310K in presence of sodium acetate by absorbance based assay
[5] = tested on: Transthyretin (Homo sapiens), P02766 [V50M]; assay: Binding affinity to N-terminal hexa-histidine tagged TTR V30M mutant (unknown origin) expressed in Escherichia coli assessed as change in enthalpy at 60 uM by ITC assay
[6] = tested on: Transthyretin (Homo sapiens), P02766 [V50M]; assay: Binding affinity to N-terminal hexa-histidine tagged TTR V30M mutant (unknown origin) expressed in Escherichia coli assessed as gibbs free energy change at 60 uM by ITC assay
[7] = tested on: Transthyretin (Homo sapiens), P02766 [V50M]; assay: as §1, with “fluorescence intensity at 1 uM” for “turbidity”, “4 days” for “1 week”, “thioflavin T” for “absorbance”, “fluorescence spectrophotometric analysis” for “assay”; details: time 4.0 day

Row | SMILES | -TdeltaS [1] [kcal/mol] | Kd (Transthyretin [2]) [nM] | Kd (Transthyretin [3]) [nM] | Ki (Transthyretin [4]) [nM] | deltaH [5] [kcal/mol] | deltaG [6] [kcal/mol] | inhibition [7]
1 | COc1cc(/C=C/c2cc(O)cc(O)c2)ccc1O | 4.7 | 730 | 1200 | 3200 | -13 | -8.1 | Active
2 | COc1cc(O)cc(/C=C/c2ccc(O)cc2)c1 | 6.2 | 1200 | 2400 | 3400 | -14 | -7.7 | Active
3 | Oc1cc(O)cc(/C=C/c2c(O)cccc2O)c1 | 1.7 | 14000 | 11000 | 54000 | -8.5 | -6.8 | inactive
4 | O=C(O)c1cc(-c2ccc(F)cc2F)ccc1O | 5.2 | – | – | – | -13 | – | Active
5 | O=C(O)c1ccc2nc(-c3cc(Cl)cc(Cl)c3)oc2c1 | -4 | – | – | – | -5 | – | Active
6 | COc1cc(/C=C/c2ccc(OC)c(OC)c2)cc(OC)c1 [(E)-3,4,3',5'-TETRAMETHOXYSTILBENE] | – | 6900 | – | 49000 | – | – | inactive
7 | Oc1cc(O)cc(/C=C/c2ccc(O)cc2O)c1 [OXYRESVERATROL] | 7.5 | 2400 | 1400 | 4500 | -16 | -8.1 | Active
8 | Oc1cc(O)cc(/C=C/c2ccc(O)c(O)c2)c1 [PICEATANNOL] | 6.4 | 2100 | 1500 | 5400 | -14 | -8 | Active
9 | COc1cc(/C=C/c2ccc(O)cc2)cc(OC)c1 [PTEROSTILBENE] | 6.8 | 1900 | 4600 | 3500 | -14 | -7.3 | Active
10 | Oc1ccc(/C=C/c2cc(O)cc(O)c2)cc1 [RESVERATROL] | 6.6 | 1400 | 1500 | 2700 | -15 | -8 | Active
11 | CC(=O)Oc1ccc(/C=C/c2cc(OC(C)=O)cc(OC(C)=O)c2)cc1 [TRIACETYLRESVERATROL] | – | – | – | 2200 | – | – | Active
12 | COc1ccc(/C=C/c2cc(OC)cc(OC)c2)cc1 [TRISMETHOXYRESVERATROL] | – | 4100 | – | – | – | – | inactive

From ChEMBL document CHEMBL5370664, “Resveratrol Derivatives Inhibit Transthyretin Fibrillization: Structural Insights into the Interactions between Resveratrol Derivatives and Transthyretin” (J Med Chem, 2023)
